In patent publication US20200223837A1, “BENZOFURAN AMIDES AND HETEROAROMATIC ANALOGUES THEREOF FOR USE IN THERAPY” (European Molecular Biology Laboratory, priority 2017, published 2020):

Tested on: EGR1 promoter
Experiment: EGR1 reporter assay (luciferase) in genomically engineered HeLa cell line
Assay type: cell-based
Conditions: Homo sapiens; EGR1 reporter HeLa cells, luciferase activity after 24 hours with compound
Excerpt: The compounds of the present invention can be characterized for their effect on expression of egr1 (early growth response protein 1) using an EGR1 reporter cell line.
The HeLa cell line was genetically modified to provide a simple, robust and highly reproducible cell-based assay reporting the activity of an endogenous EGR1 promoter. In brief, a construct encoding EGFP and luciferase proteins, separated by a self-cleaving P2A peptide was inserted, using CRISPR, immediately downstream (3′) to the promoter of endogenous EGR1. Upon treatment with compounds, cells express EGFP and luciferase from EGR1 promoter, which can be readily detected either in live cells using microscopy or cytometry, or through detection of luciferase activity in cell lysates.
To achieve stable genomic integration of an EGR1-promoter dual reporter, two plasmids were generated: one contained the reporter construct (eGFP-P2A-luciferase) flanked by homology arms that direct insertion into genomic DNA, by homologous recombination, of a break in genomic DNA generated by guide RNA targeted cleavage by Cas9 endonuclease. The gRNA expressing plasmid was based on px330 (56), into which a gRNA sequence that targets a break in gDNA close to the start codon of EGR1 was cloned. The left homology arm (encoding part of EGR1 promoter adjacent to its start codon) and right homology arm (encoding […] of start codon of EGR1) were cloned from gDNA using the following primers: […]
The present compounds can be tested, e.g. by using a HeLa cell line carrying an EGR1 reporter construct which allows for expression of luciferase and eGFP (enhanced GFP) controlled by the EGR1 promoter. For this reporter cells are seeded in the wells of a 384 well microtiter plate at a density of 2000 cells per well in 48 μl of DMEM supplemented with 4.5 g/l glucose, 2 mM glutamine and 10% FCS and are incubated for 24 hours at 37° C. with 5% CO2 and 95% humidity. Then, an eleven point 1:3 serial dilution of each test compound, from an initial concentration of 100 μM, is prepared in DMSO and the dilutions are added to the cells in a volume of 2 μl per well. The cells are incubated for a further 24 hours, after which the luciferase activity of each well is determined by addition of 25 μl of luciferase substrate reaction mixture (Britelite™ plus, Perkin Elmer) and measuring the bioluminescence light output (EnVision Xcite plate reader, PerkinElmer).
The compound of example 64 served as a positive control for this EGR1 reporter assay. The compound of example 64 had been identified in an initial high throughput screening campaign.

Row | Structure (SMILES) | EC50
1 | COCc1cnc(NC(=O)Cc2coc3cc4c(cc23)CCC4)s1 [Example 65, 2-(6,7-Dihydro-5H-cyclopenta[f]benzofuran-3-yl)-N-[5-(methoxymethyl)thiazol-2-yl]acetamide] | 0.01 to 10 µM
2 | CC(=O)NCc1ccc(-c2csc(NC(=O)Cc3coc4cc5c(cc34)CCC5)n2)o1 [Example 19, N-[4-[5-(Acetamidomethyl)-2-furyl]thiazol-2-yl]-2-(6,7-dihydro-5H-cyclopenta[f]benzofuran-3-yl)acetamide] | 10 to 100 µM
3 | Cc1ccc2c(CC(=O)Nc3nc(-c4ccncc4)cs3)coc2c1 [Example 31, 2-(6-Methylbenzofuran-3-yl)-N-[4-(4-pyridyl)thiazol-2-yl]acetamide] | 0.01 to 10 µM
4 | Cc1c(Cl)ccc2c(CC(=O)Nc3ncc(C(F)(F)F)s3)coc12 [Example 94, 2-(6-Chloro-7-methyl-benzofuran-3-yl)-N-[5-(trifluoromethyl)thiazol-2-yl]acetamide] | 0.01 to 10 µM
5 | C=CCN(C(=O)Cc1coc2cc(C)ccc12)c1nc(-c2ccc(S(C)(=O)=O)cc2)cs1 [Example 70, N-Allyl-2-(6-methylbenzofuran-3-yl)-N-[4-(4-methylsulfonylphenyl)thiazol-2-yl]acetamide] | 0.01 to 10 µM
6 | COc1ccc2c(CC(=O)Nc3nc(-c4ccc5c(c4)OCO5)cs3)coc2c1 [Example 78, N-[4-(1,3-Benzodioxol-5-yl)thiazol-2-yl]-2-(6-methoxybenzofuran-3-yl)acetamide] | 0.01 to 10 µM
7 | COc1ccc(-c2csc(NC(=O)Cc3coc4cc(OC)ccc34)n2)cc1 [Example 71, 2-(6-Methoxybenzofuran-3-yl)-N-[4-(4-methoxyphenyl)thiazol-2-yl]acetamide] | 0.01 to 10 µM
8 | Cn1ccc(NC(=O)Cc2coc3cc4c(cc23)CCC4)n1 [Example 3, 2-(6,7-Dihydro-5H-cyclopenta[f]benzofuran-3-yl)-N-(1-methylpyrazol-3-yl)acetamide] | 10 to 100 µM
9 | O=C(Cc1coc2ncccc12)Nc1ncc(C(F)(F)F)s1 [Example 106, 2-(Furo[2,3-b]pyridin-3-yl)-N-(5-(trifluoromethyl)thiazol-2-yl)acetamide] | 0.01 to 10 µM
10 | COc1ccc2c(CC(=O)Nc3nc(-c4ccc5c(c4)CCC(=O)N5)cs3)coc2c1 [Example 29, 2-(6-Methoxybenzofuran-3-yl)-N-[4-(2-oxo-3,4-dihydro-1H-quinolin-6-yl)thiazol-2-yl]acetamide] | 0.01 to 10 µM
11 | COc1ccc2c(CC(=O)Nc3ncc(C(F)(F)F)s3)coc2c1C [Example 91, 2-(6-Methoxy-7-methyl-benzofuran-3-yl)-N-[5-(trifluoromethyl)thiazol-2-yl]acetamide] | 0.01 to 10 µM
12 | Cc1cnc(NC(=O)Cc2coc3c(C)c(C)ccc23)s1 [Example 88, 2-(6,7-Dimethylbenzofuran-3-yl)-N-(5-methylthiazol-2-yl)acetamide] | 0.01 to 10 µM
13 | Cc1ccc2c(CC(=O)Nc3ncc(C(C)C)s3)coc2c1C [Example 95, 2-(6,7-Dimethylbenzofuran-3-yl)-N-(5-isopropylthiazol-2-yl)acetamide] | 0.01 to 10 µM
14 | COc1ccc(-c2csc(NC(=O)Cc3coc4cc(C)ccc34)n2)cc1Cl [Example 67, N-[4-(3-Chloro-4-methoxy-phenyl)thiazol-2-yl]-2-(6-methylbenzofuran-3-yl)acetamide] | 0.01 to 10 µM
15 | COc1ccc2c(CC(=O)N(c3ccc(SC(F)F)cc3)c3nc4ccccc4s3)coc2c1 [Example 77, N-(1,3-Benzothiazol-2-yl)-N-[4-(difluoromethylsulfanyl)phenyl]-2-(6-methoxybenzofuran-3-yl)acetamide] | 0.01 to 10 µM
16 | Cc1ccc2c(CC(=O)Nc3nc(-c4ccccn4)cs3)coc2c1 [Example 21, 2-(6-Methylbenzofuran-3-yl)-N-[4-(2-pyridyl)thiazol-2-yl]acetamide] | 10 to 100 µM
17 | COc1ccc2c(CC(=O)Nc3nc(CC(N)=O)cs3)coc2c1 [Example 7, N-[4-(2-Amino-2-oxo-ethyl)thiazol-2-yl]-2-(6-methoxybenzofuran-3-yl)acetamide] | 10 to 100 µM
18 | COc1ccc2c(CC(=O)Nc3nccs3)coc2c1 [Example 2, 2-(6-Methoxybenzofuran-3-yl)-N-thiazol-2-yl-acetamide] | 10 to 100 µM
19 | COc1c(C)ccc2c(CC(=O)Nc3ncc(C(F)(F)F)s3)coc12 [Example 97, 2-(7-Methoxy-6-methyl-benzofuran-3-yl)-N-[5-(trifluoromethyl)thiazol-2-yl]acetamide] | 0.01 to 10 µM
20 | Cc1ccc2c(CCC(=O)Nc3ncc(C(F)(F)F)s3)coc2c1C [Example 61, 3-(6,7-Dimethylbenzofuran-3-yl)-N-[5-(trifluoromethyl)thiazol-2-yl]propanamide] | 0.01 to 10 µM
21 | Cc1cnc(NC(=O)Cc2coc3c(Cl)c(C)ccc23)[nH]1 [Example 57, 2-(7-Chloro-6-methyl-benzofuran-3-yl)-N-(5-methyl-1H-imidazol-2-yl)acetamide] | 0.01 to 10 µM

Results, then the molecule that gave them:

Row | EC50 | Structure (SMILES)
22 | 10 to 100 µM | CNC(=O)c1nc(NC(=O)Cc2coc3c(C)c(C)ccc23)sc1C(F)(F)F [Example 103, 2-(2-(6,7-dimethylbenzofuran-3-yl)acetamido)-N-methyl-5-(trifluoromethyl)thiazole-4-carboxamide]
23 | 0.01 to 10 µM | CCc1ccc2c(CC(=O)Nc3ncc(C)s3)coc2c1 [Example 40, 2-(6-Ethylbenzofuran-3-yl)-N-(5-methylthiazol-2-yl)acetamide]
24 | 0.01 to 10 µM | Cc1ccc2c(CC(=O)Nc3ncc(C)s3)coc2c1 [Example 48, 2-(6-Methylbenzofuran-3-yl)-N-(5-methylthiazol-2-yl)acetamide]
25 | 0.01 to 10 µM | COc1ccc2nc(NC(=O)Cc3coc4cc5c(cc34)CCC5)sc2c1 [Example 32, 2-(6,7-Dihydro-5H-cyclopenta[f]benzofuran-3-yl)-N-(6-methoxy-1,3-benzothiazol-2-yl)acetamide]
26 | 10 to 100 µM | COc1ccc2c(CC(=O)Nc3nc(-c4ccc(CNC(C)=O)o4)cs3)coc2c1 [Example 8, N-[4-[5-(Acetamidomethyl)-2-furyl]thiazol-2-yl]-2-(6-methoxybenzofuran-3-yl)acetamide]
27 | 10 to 100 µM | O=C(Cc1coc2ccccc12)Nc1ncc(C(F)(F)F)s1 [Example 6, 2-(Benzofuran-3-yl)-N-[5-(trifluoromethyl)thiazol-2-yl]acetamide]
28 | 0.01 to 10 µM | COC(=O)c1cnc(NC(=O)Cc2coc3c(C)c(C)ccc23)s1 [Example 47, Methyl 2-[[2-(6,7-dimethylbenzofuran-3-yl)acetyl]amino]thiazole-5-carboxylate]
29 | 10 to 100 µM | Cc1ccc2occ(CC(=O)Nc3ncc(C(F)(F)F)s3)c2c1 [Example 4, 2-(5-Methylbenzofuran-3-yl)-N-[5-(trifluoromethyl)thiazol-2-yl]acetamide]
30 | 0.01 to 10 µM | COCc1cnc(NC(=O)Cc2coc3c(Cl)c(C)ccc23)s1 [Example 89, 2-(7-Chloro-6-methyl-benzofuran-3-yl)-N-[5-(methoxymethyl)thiazol-2-yl]acetamide]
31 | 0.01 to 10 µM | Cc1ccc2c(CC(=O)Nc3nc(-c4cccs4)cs3)coc2c1 [Example 27, 2-(6-Methylbenzofuran-3-yl)-N-[4-(2-thienyl)thiazol-2-yl]acetamide]
32 | 0.01 to 10 µM | Cc1cnc(NC(=O)Cc2coc3cc(C)c(C)cc23)s1 [Example 45, 2-(5,6-Dimethylbenzofuran-3-yl)-N-(5-methylthiazol-2-yl)acetamide]
33 | 10 to 100 µM | CC(=O)NCc1ccc(-c2csc(NC(=O)Cc3coc4cc(C)c(C(C)C)cc34)n2)o1 [Example 1, N-[4-[5-(Acetamidomethyl)-2-furyl]thiazol-2-yl]-2-(5-isopropyl-6-methyl-benzofuran-3-yl)acetamide]
34 | 0.01 to 10 µM | Cc1ccc2c(CC(=O)N(c3ccc(SC(F)F)cc3)c3nc4ccccc4s3)coc2c1 [Example 102, N-(1,3-Benzothiazol-2-yl)-N-[4-(difluoromethylsulfanyl)phenyl]-2-(6-methylbenzofuran-3-yl)acetamide]
35 | 0.01 to 10 µM | Cc1cnc(NC(=O)Cc2coc3c(Cl)c(C)ccc23)s1 [Example 90, 2-(7-Chloro-6-methyl-benzofuran-3-yl)-N-(5-methylthiazol-2-yl)acetamide]
36 | 0.01 to 10 µM | Cc1ccc2c(CC(=O)N(c3ccc(SC(F)F)cc3)c3nc4ccccc4s3)coc2c1C [Example 82, N-(1,3-Benzothiazol-2-yl)-N-[4-(difluoromethylsulfanyl)phenyl]-2-(6,7-dimethylbenzofuran-3-yl)acetamide]
37 | 0.01 to 10 µM | COc1ccc2c(CC(=O)N(c3ccc(C(C)=O)cc3)c3nc4ccccc4s3)coc2c1 [Example 68, N-(4-Acetylphenyl)-N-(1,3-benzothiazol-2-yl)-2-(6-methoxybenzofuran-3-yl)acetamide]
